Earlier results in article PMC8316002, “Inhibition of Escherichia coli Lipoprotein Diacylglyceryl Transferase Is Insensitive to Resistance Caused by Deletion of Braun’s Lipoprotein” (Journal of Bacteriology, 2021).

System: LspA
Conditions: LspA inhibitor globomycin; cited from earlier work
Excerpt: Using a combination of biochemical and genetic strategies, we believe the Lgt inhibitor G2824 identified in this study inhibits bacterial cell growth through inhibition of the diacylglyceryl transferase activity of Lgt. First, G2824 was identified using a specific Lgt binding assay and confirmed to inhibit Lgt enzymatic function in vitro. Second, the results generated from pharmacologic inhibition of Lgt by G2824 in both CFT073 and MG1655 E. coli strains are highly consistent with the genetic depletion of Lgt, strongly arguing against off-target effects as a main cause of G2824 bactericidal ac ...

## CCCCCC[C@H]1OC(=O)CNC(=O)[C@H]([C@H](C)O)NC(=O)[C@H](CO)NC(=O)[C@H]([C@H](C)CC)NC(=O)[C@H](CC(C)C)N(C)C(=O)[C@@H]1C [Globomycin]
  on-target resistance mutations: no on-target resistance mutations have ever been identified
